Data reported in US11717502B2, “Blood flow improver” (WAKUNAGA PHARMACEUTICAL CO., LTD., priority 2017, dated 2023).

Legend:
[1] = system: water immersion stressed rats; experiment: Actions against depressed tail subcutaneous blood flow in water immersion stressed rats, compared between S1PC and SAC (Test Example 2); format: in vivo, male Wistar rats; settings: for Effect of improving the tail skin blood flow with respect to the control group: 6.5 mg/kg single oral administration two hours before water immersion stress, one hour after end of stress, Bonferroni correction
Protocol: Actions against Depressed Tail Subcutaneous Blood Flow in Water Immersion Stressed Rats, Compared between S1PC and SAC
(§1) Seven-week-old male Wistar rats purchased from Japan SLC, Inc. (Hamamatsu City) were grouped by twelves, and preliminarily bred for two weeks. During preliminary breeding, handling was performed on the rats, and the rats were bred in a constant environment at a temperature of 23±1° C., a humidity of 50±10%, and a light/dark cycle of 12 hours (light period: 7 to 19 o'clock), and freely fed with artificial diet (CE-2, from CLEA Japan, inc.) and sterilized tap water.
The administration was performed by forced oral administration using a disposable feeding needle, and the fluid volume to be administered was 10 mL per kilogram of body weight of rat. As a sample to be administered, approximately 15 mg each of S1PC (a cis/trans mixture) manufactured in Production Example 2 and SAC were precisely weighed, and dissolved in 15 mL of purified water. These solutions were used as a stock solution. The solutions were properly diluted to give 6.5 mg/kg (body weight of rat) of dosage and the diluted solution was orally administered to each rat a single time. […]
The rats were allowed to stand still in a room conditioned at a temperature of 20±0.5° C. for 30 minutes or longer, and attached with a probe for blood flow measurement using a binding tape at a position 5 cm away from the base of tail under isoflurane anesthesia. The blood flow was measured for 5 minutes using a laser tissue blood flowmeter (FLO-C1, from Omegawave Inc.). Average blood flow for 3 minutes during which the stable blood flow was shown was determined as the tail skin blood flow of the individuals. The blood flow before water immersion was measured, and then S1PC, SAC or purified water was orally administered to the rats. […] The tail skin blood flow after the water immersion stress was measured one hour after the end of water immersion stress.
Measured values were given […] average±standard error. […]

[2] = system: water immersion stressed rats; experiment: Action of S1PC against decrease in tail skin blood flow in water immersion stressed rats (Test Example 1); format: in vivo, male Wistar rats
Protocol: Action of S1PC Against Decrease in Tail Skin Blood Flow in Water Immersion Stressed Rate
as §1, with “Eight-week-old” for “Seven-week-old”, “nines,” for “twelves,”
The administration was performed by forced oral administration using a disposable feeding needle, and the fluid volume to be administered was 10 mL per kilogram of body weight of rat. As a sample to be administered, approximately 15 mg of S1PC (a cis/trans mixture) manufactured in Production Example 2 was precisely weighed, and dissolved in 15 mL of purified water. This solution was used as a stock solution. The solution was properly diluted to give 6.5 mg/kg (body weight of rat) of dosage and the diluted solution was orally administered to each rat a single time. To each rat of a control group, a solvent (purified water) was orally administered in the same manner as described above.
The rats were allowed to stand still in a room conditioned at a temperature of 20±0.5° C. for 30 minutes or longer, and attached with a probe for blood flow measurement using a binding tape at a position 5 cm away from the base of tail under isoflurane anesthesia. The blood flow was measured for 5 minutes using a laser tissue blood flowmeter (FLO-C1, from Omegawave Inc.). Average blood flow for 3 minutes during which the stable blood flow was shown was determined as the tail skin blood flow of the individual. The blood flow before water immersion was measured, and then S1PC or purified water was orally administered to the rats. Two hours after the administration, the rats were immersed up to the xiphoid and below in water at 15° C. for 10 minutes, using a stainless-steel restraint cage. The tail skin blood flow after the water immersion stress was measured one hour after the end of water immersion stress.
Measured values were given as average±standard error.
The t-test was used for examination.

Structure (SMILES) | Effect of improving the tail skin blood flow with respect to the control group [1] | Tail skin blood flow, S1PC group compared with SAC group ([1]; 6.5 mg/kg single oral dose each, one hour after end of water immersion stress, p<0.01) | Effect of improving the tail skin blood flow with respect to the control group ([2]; 6.5 mg/kg single oral administration two hours before water immersion stress, t-test) | Degree of decrease in tail skin blood flow due to water immersion stress ([2]; 6.5 mg/kg single oral administration two hours before water immersion stress, versus control group) | Tail skin blood flow, one hour after end of water immersion stress ([2]; 6.5 mg/kg single oral dose two hours before water immersion (15° C., 10 minutes), average ± standard error) | Tail skin blood flow, before water immersion stress ([2]; baseline before oral administration, average ± standard error, laser tissue blood flowmeter)
CC=CSC[C@H](N)C(=O)O [S1PC, S-1-propenylcysteine] | showed a significant effect of improving the tail skin blood flow | significantly higher value of tail skin blood flow, as compared with the SAC group | significant effect of improving the tail skin blood flow | smaller as compared with the control group | 2.21 ± 0.15 mL/min/100 g | 2.76 ± 0.15 mL/min/100 g
C=CCSC[C@H](N)C(=O)O [SAC, S-allylcysteine, reference compound] | did not show a significant effect of improving the tail skin blood flow |  |  |  |  | 
